Experimental data from patent publication US10350210B2, “EGFR and ALK dual inhibitor” (PRECEDO PHARMACEUTICALS CO., LTD, priority 2015, dated 2019).

Columns and labels:
Assay type in all cases: cell-based
PC-9 = assay: Growth of cancer cells (Cell Titer-Glo viability), PC-9; conditions: Homo sapiens; PC-9 (EGFR delE746_A750 mutant), 72 hrs
How it was run: (§1)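 Cells are counted as viable by CellTiter-Glo chemiluminescence. Murine BaF3 lines depend on a stably transfected TEL-fused kinase after IL-3 withdrawal, and the NSCLC lines express mutant EGFR.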

NCI-H3122 = assay: Growth of cancer cells (Cell Titer-Glo viability), NCI-H3122; conditions: Homo sapiens; NCI-H3122 (expressing ALK gene), 72 hrs; read-out: GI50
NCI-H1975 = assay: Growth of cancer cells (Cell Titer-Glo viability), NCI-H1975; conditions: Homo sapiens; NCI-H1975 (EGFR L858R/T790M double mutant), 72 hrs
How it was run: as §1

HCC827 = assay: Growth of cancer cells (Cell Titer-Glo viability), HCC827; conditions: Homo sapiens; HCC827 (mutant EGFR del19), 72 hrs
How it was run: (§2)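 Mouse BaF3 cells retrovirally transduced with human kinase fused to N-terminal TEL fragment, then IL-3 withdrawn so proliferation depends on the transgene. HCC827 carries EGFR del19 and NCI-H3255 EGFR L858R. Viable cells were quantified by CellTiter-Glo chemiluminescence on a microplate reader.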

BaF3-TEL-INSR = assay: Cell growth (Cell Titer-Glo viability), BaF3-TEL-INSR; conditions: Mus musculus; BaF3-TEL-INSR (stably expressing INSR protein), 72 hrs
Text: (§3) By testing the effect of the novel kinase inhibitors on the proliferation of cancer cells, the selectivity of the compounds of the present disclosure in inhibiting the proliferation of cancer cells was further assessed. In this example, human non-small cell lung cancer cell NCI-H1975 (expressing EGFR L858R/T790M double mutant gene), human skin squamous carcinoma cell A431 (expressing wild-type EGFR gene), non-small cell lung cancer NCI-H3255 (expressing EGFR L858R mutant gene), non-small cell lung cancer cell NCI-H3122 (expressing ALK gene), human non-small cell lung cancer cell A549 (expressing wild-type EGFR gene), human non-small cell lung cancer cell NCI-H2122 (expressing wild-type EGFR gene), human non-small cell lung cancer cell NCI-H460 (expressing wild-type EGFR gene), human non-small cell lung cancer cell PC-9 (expressing EGFR delE746_A750 mutant gene), Chinese hamster ovary cell CHO (Cricetulus griseus, hamster, Chinese, ovary), Chinese hamster lung cell CHL, human non-small cell lung cancer cell HCC827 (expressing mutant EGFR del19 gene), human lung adenocarcinoma cell HCC4006 (expressing mutant EGFR del19 gene), human non-small cell lung cancer cell NCI-H2228 (expressing wild-type ALK gene), and mouse primary B cell BaF3 were used, and the above cells were all purchased from ATCC (US). In addition, mouse BaF3-TEL-ALK (stably expressing ALK kinase), mouse BaF3-ALK-F1174L (stably expressing mutant ALK F1174L kinase), mouse BaF3-NPM-ALK (stably expressing ALK kinase), mouse BaF3-TEL-EGFR (stably expressing EGFR kinase), mouse BaF3-TEL-EGFR-T790M (stably expressing EGFR T790M mutant kinase), mouse BaF3-FL-EGFR-Del19 (stably expressing EGFR delE746_A750 mutant kinase), mouse BaF3-TEL-EGFR-L858R (stably expressing EGFR L858R mutant kinase), mouse BaF3-FL-EGFR-T790M-L858R (stably expressing EGFR T790M/L858R mutant kinase), mouse BaF3-TEL-INSR (stably expressing INSR protein), mouse BaF3-TEL-IGF1R (stably expressing IGF1R Protein), mouse BaF3-EML4-ALK (stably expressing EML4-ALK Protein), mouse BaF3-TEL-JAK3 (stably expressing JAK3 kinase protein), mouse BaF3-TEL-CSF1R (stably expressing CSF1R protein), and mouse BaF3-TEL-ALK-F1196M (stably expressing ALK F1196M mutant kinase) were also used in this example. The above cell lines were all established by our laboratory via the following process: kinase proteins or protein domain sequences of human ALK, ALK F1174L, EGFR, EGFR T790M, EGFR delE746_A750, EGFR L858, EGFR T790M/L858R, INSR, IGF1R, EML4-ALK, JAK3, CSF1R, ALK F1196M were amplified respectively by PCR, and were respectively inserted into MSCV-Puro vector (Clontech) with N-terminal TEL fragments and/or NPM fragments and/or TPR fragments; the resultants were stably transfected into mouse BaF3 cells by the means of retrovirus, and the IL-3 growth factors were removed, and eventually the ALK, ALK F1174L, EGFR, EGFR T790M, EGFR delE746_A750, EGFR L858, EGFR T790M/L858R, INSR, IGF1R, EML4-ALK, JAK3, CSF1R, ALK F1196M-transferred protein dependent cell lines were obtained.
(§4) The number of viable cells was determined quantitatively by a microplate reader using Cell Titer-Glo® (Promega, US) chemiluminescence cell viability assay kit.

BaF3-TEL-JAK3 = assay: Cell growth (Cell Titer-Glo viability), BaF3-TEL-JAK3; conditions: Mus musculus; BaF3-TEL-JAK3 (stably expressing JAK3 kinase protein), 72 hrs
Text: as §3, §4

BaF3-EML4-ALK = assay: Cell growth (Cell Titer-Glo viability), BaF3-EML4-ALK; conditions: Mus musculus, Ba/F3 EML4-ALK; BaF3-EML4-ALK (stably expressing EML4-ALK protein), 72 hrs
Text: as §3, §4

BaF3-TEL-CSF1R = assay: Cell growth (Cell Titer-Glo viability), BaF3-TEL-CSF1R; conditions: Mus musculus; BaF3-TEL-CSF1R (stably expressing CSF1R protein), 72 hrs
Text: as §3, with “The above cell lines were all established by our laboratory via the following process: kinase proteins or protein domain sequences of human ALK, ALK F1174L, EGFR, EGFR T790M, EGFR delE746_A750, EGFR L858, EGFR T790M/L858R, INSR, IGF1R, EML4-ALK, JAK3, CSF1R, ALK F1196M were amplified respectively by PCR, and were respectively inserted into MSCV-Puro vector (Clontech) with N-terminal TEL fragments and/or NPM fragments and/or TPR fragments; the resultants were stably transfected into mouse BaF3 cells by the means of retrovirus, and the IL-3 growth factors were removed, and eventually the ALK, ALK F1174L, EGFR, EGFR T790M, EGFR delE746_A750, EGFR L858, EGFR T790M/L858R, INSR, IGF1R, EML4-ALK, JAK3, CSF1R, ALK F1196M-transferred protein dependent cell lines were obtained.” left out
as §4

BaF3 = assay: Cell growth (Cell Titer-Glo viability), BaF3; conditions: BaF3 mouse primary B cell, 72 hrs
BaF3-TEL-ALK = assay: Cell growth (Cell Titer-Glo viability), BaF3-TEL-ALK; conditions: Mus musculus; BaF3-TEL-ALK (stably expressing ALK kinase), 72 hrs
How it was run: as §2

BaF3-TEL-ALK-F1196M = assay: Cell growth (Cell Titer-Glo viability), BaF3-TEL-ALK-F1196M; conditions: Mus musculus; BaF3-TEL-ALK-F1196M (ALK F1196M mutant kinase), 72 hrs
Text: (§5) By testing the effect of the novel kinase inhibitors on the proliferation of cancer cells, the selectivity of the compounds of the present disclosure in inhibiting the proliferation of cancer cells was further assessed. In this example, human non-small cell lung cancer cell NCI-H1975 (expressing EGFR L858R/T790M double mutant gene), human skin squamous carcinoma cell A431 (expressing wild-type EGFR gene), non-small cell lung cancer NCI-H3255 (expressing EGFR L858R mutant gene), non-small cell lung cancer cell NCI-H3122 (expressing ALK gene), human non-small cell lung cancer cell A549 (expressing wild-type EGFR gene), human non-small cell lung cancer cell NCI-H2122 (expressing wild-type EGFR gene), human non-small cell lung cancer cell NCI-H460 (expressing wild-type EGFR gene), human non-small cell lung cancer cell PC-9 (expressing EGFR delE746_A750 mutant gene), Chinese hamster ovary cell CHO (Cricetulus griseus, hamster, Chinese, ovary), Chinese hamster lung cell CHL, human non-small cell lung cancer cell HCC827 (expressing mutant EGFR del19 gene), human lung adenocarcinoma cell HCC4006 (expressing mutant EGFR del19 gene), human non-small cell lung cancer cell NCI-H2228 (expressing wild-type ALK gene), and mouse primary B cell BaF3 were used, and the above cells were all purchased from ATCC (US). […]
as §4

BaF3-NPM-ALK = assay: Cell growth (Cell Titer-Glo viability), BaF3-NPM-ALK; conditions: Mus musculus; BaF3-NPM-ALK (stably expressing ALK kinase), 72 hrs
BaF3-TEL-EGFR-T790M = assay: Cell growth (Cell Titer-Glo viability), BaF3-TEL-EGFR-T790M; conditions: Mus musculus; BaF3-TEL-EGFR-T790M (EGFR T790M mutant kinase), 72 hrs
How it was run: as §2

BaF3-TEL-IGF1R = assay: Cell growth (Cell Titer-Glo viability), BaF3-TEL-IGF1R; conditions: Mus musculus; BaF3-TEL-IGF1R (stably expressing IGF1R protein), 72 hrs
Text: as §5, with “(US). In addition, mouse BaF3-TEL-ALK (stably expressing ALK kinase), mouse BaF3-ALK-F1174L (stably expressing mutant ALK F1174L kinase), mouse BaF3-NPM-ALK (stably expressing ALK kinase), mouse BaF3-TEL-EGFR (stably expressing EGFR kinase), mouse BaF3-TEL-EGFR-T790M (stably expressing EGFR T790M mutant kinase), mouse BaF3-FL-EGFR-Del19 (stably expressing EGFR delE746_A750 mutant kinase), mouse BaF3-TEL-EGFR-L858R (stably expressing EGFR L858R mutant kinase), mouse BaF3-FL-EGFR-T790M-L858R (stably expressing EGFR T790M/L858R mutant kinase), mouse BaF3-TEL-INSR (stably expressing INSR protein), mouse BaF3-TEL-IGF1R (stably expressing IGF1R Protein), mouse BaF3-EML4-ALK (stably expressing EML4-ALK Protein), mouse BaF3-TEL-JAK3 (stably expressing JAK3 kinase protein), mouse BaF3-TEL-CSF1R (stably expressing CSF1R protein), and mouse BaF3-TEL-ALK-F1196M (stably expressing ALK F1196M mutant kinase) were also used in this example.” for “(US).”
as §4

A549 = assay: Growth of cancer cells (Cell Titer-Glo viability), A549; conditions: Homo sapiens; A549 (wild-type EGFR), 72 hrs

C=CC(=O)Nc1cc(Nc2ncc(Cl)c(Nc3ccccc3C(=O)NC)n2)c(OC)cc1N1CCN(C2CCN(C)CC2)CC1 [Compound 72, 2-(2-(5-acrylamido-2-methoxy-4-(4-(1-methylpiperidin-4-yl)piperazin-1-yl)phenylamino)-5-chloropyrimidin-4-ylamino)-N-methylbenzamide]
GI50 (PC-9): 120 nM
GI50 (NCI-H3122): 18 nM
GI50 (NCI-H1975): 120 nM
GI50 (HCC827): 210 nM
GI50 (BaF3-TEL-INSR): 49 nM
GI50 (BaF3-TEL-JAK3): 290 nM
GI50 (BaF3-EML4-ALK): 71 nM
GI50 (BaF3-TEL-CSF1R): 370 nM
GI50 (BaF3): 1700 nM

C=CC(=O)Nc1cc(Nc2ncc(Br)c(Nc3ccccc3S(=O)(=O)C(C)C)n2)c(OC)cc1N1CCN(CC)CC1 [Compound 83, N-(5-(5-bromo-4-(2-(isopropylsulfonyl)phenylamino)pyrimidin-2-ylamino)-2-(4-ethylpiperazin-1-yl)-4-methoxyphenyl)acrylamide]
GI50 (PC-9): 58 nM
GI50 (NCI-H3122): 2 nM
GI50 (NCI-H1975): < 0.3 nM
GI50 (BaF3-TEL-ALK): 1 nM
GI50 (BaF3-TEL-INSR): < 0.3 nM
GI50 (BaF3-TEL-ALK-F1196M): < 0.3 nM
GI50 (BaF3-NPM-ALK): < 0.3 nM
GI50 (BaF3): 380 nM

C=CC(=O)Nc1cc(Nc2ncc(Cl)c(Nc3ccccc3C(=O)NC)n2)c(OC)cc1N1CCN(CC)CC1 [Compound 65]
GI50 (BaF3-TEL-EGFR-T790M): 30 nM
GI50 (PC-9): 4.2 nM
GI50 (NCI-H3122): 3.5 nM
GI50 (NCI-H1975): 5.1 nM
GI50 (BaF3-TEL-IGF1R): 2 nM
GI50 (BaF3-TEL-ALK): 3.1 nM
GI50 (HCC827): 13 nM
GI50 (BaF3-TEL-INSR): < 0.3 nM
GI50 (BaF3-TEL-JAK3): 45 nM
GI50 (BaF3-EML4-ALK): 8.6 nM
GI50 (A549): 220 nM
GI50 (BaF3): 2100 nM

C=CC(=O)Nc1cc(Nc2ncc(Cl)c(Nc3ccccc3C(=O)NC)n2)c(OC)cc1N1CCN(C)CC1 [Compound 64, 2-(2-(5-acrylamido-2-methoxy-4-(4-methylpiperazin-1-yl)phenylamino)-5-chloropyrimidin-4-ylamino)-N-methylbenzamide]
GI50 (BaF3-TEL-EGFR-T790M): 28 nM
GI50 (PC-9): 7.2 nM
GI50 (NCI-H3122): 4.4 nM
GI50 (NCI-H1975): 50 nM
GI50 (BaF3-TEL-IGF1R): 14 nM
GI50 (BaF3-TEL-ALK): 10 nM
GI50 (HCC827): 13 nM
GI50 (BaF3-TEL-INSR): 2.3 nM
GI50 (BaF3-TEL-JAK3): 59 nM
GI50 (BaF3-EML4-ALK): 13 nM
GI50 (A549): 370 nM
GI50 (BaF3): 2900 nM

C=CC(=O)Nc1cc(Nc2ncc(Cl)c(Nc3ccccc3C(=O)NC)n2)c(OC)cc1N(C)CCN(C)C [Compound 71, 2-(2-(5-acrylamido-4-((2-(dimethylamino)ethyl)(methyl)amino)-2-methoxyphenylamino)-5-chloropyrimidin-4-ylamino)-N-methylbenzamide]
GI50 (PC-9): 2 nM
GI50 (NCI-H3122): 4.3 nM
GI50 (NCI-H1975): 12 nM
GI50 (HCC827): 16 nM
GI50 (BaF3-TEL-INSR): 8.4 nM
GI50 (BaF3-TEL-JAK3): 9 nM
GI50 (BaF3-EML4-ALK): 12 nM
GI50 (BaF3-TEL-CSF1R): 150 nM
GI50 (BaF3): 940 nM
